In one assay the target is T1, PDGFRalpha(V561D) (Homo sapiens, UniProt P16234, V561D).
T1 construct: recombinant human PDGFRalpha, amino acids 550end containing the V561 D mutation; 6His (N)
Description: PDGFRalpha(V561D) assay. It counts as biochemical. The note with it: recombinant human PDGFRalpha aa 550-end, 200 μM ATP, 1.4E-06 means 1.4×10^−6, read-out: Inhibition (IC50) of PDGFRα (V561D). An outline of the steps:
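Radiometric filter-binding assay: substrate phosphorylation by recombinant N-His-tagged human PDGFRα 550-end V561D was quenched with 3% phosphoric acid after 40 min at room temperature, then counted.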

A further assay addresses T2, c-Kit(V654A) (Homo sapiens, UniProt P10721, V654A).
T2 construct: amino acids 544-end containing the V654A mutation; GST (N)
Nature of the assay: c-Kit(V654A) assay. It counts as biochemical. The note with it: recombinant human c-Kit aa 544-end, 200 μM ATP, 1.4E-06 means 1.4×10^−6, read-out: Inhibition (IC50) of c-KIT (V654A). An outline of the steps: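 Radiometric filter-binding read-out: substrate 33P incorporation counted by scintillation after P30 filtermat washes in 75 mM phosphoric acid and methanol. Enzyme: N-GST recombinant human c-Kit aa 544-end carrying V654A.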

T1 sequence (P16234 550-1089 V561D): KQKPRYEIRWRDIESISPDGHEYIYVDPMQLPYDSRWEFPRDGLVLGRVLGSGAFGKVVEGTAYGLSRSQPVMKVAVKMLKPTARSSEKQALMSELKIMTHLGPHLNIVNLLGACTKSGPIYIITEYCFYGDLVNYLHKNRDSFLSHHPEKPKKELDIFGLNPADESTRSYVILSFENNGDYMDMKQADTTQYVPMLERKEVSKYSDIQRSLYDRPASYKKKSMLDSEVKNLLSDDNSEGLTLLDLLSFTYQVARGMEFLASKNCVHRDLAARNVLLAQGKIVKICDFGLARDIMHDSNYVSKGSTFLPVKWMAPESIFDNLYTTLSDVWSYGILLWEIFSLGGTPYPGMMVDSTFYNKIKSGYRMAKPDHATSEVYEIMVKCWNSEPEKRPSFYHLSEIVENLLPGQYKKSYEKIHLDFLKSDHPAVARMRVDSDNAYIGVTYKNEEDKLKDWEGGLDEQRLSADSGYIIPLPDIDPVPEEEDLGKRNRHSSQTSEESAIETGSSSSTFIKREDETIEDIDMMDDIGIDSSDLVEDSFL
T2 sequence (P10721 544-976 V654A): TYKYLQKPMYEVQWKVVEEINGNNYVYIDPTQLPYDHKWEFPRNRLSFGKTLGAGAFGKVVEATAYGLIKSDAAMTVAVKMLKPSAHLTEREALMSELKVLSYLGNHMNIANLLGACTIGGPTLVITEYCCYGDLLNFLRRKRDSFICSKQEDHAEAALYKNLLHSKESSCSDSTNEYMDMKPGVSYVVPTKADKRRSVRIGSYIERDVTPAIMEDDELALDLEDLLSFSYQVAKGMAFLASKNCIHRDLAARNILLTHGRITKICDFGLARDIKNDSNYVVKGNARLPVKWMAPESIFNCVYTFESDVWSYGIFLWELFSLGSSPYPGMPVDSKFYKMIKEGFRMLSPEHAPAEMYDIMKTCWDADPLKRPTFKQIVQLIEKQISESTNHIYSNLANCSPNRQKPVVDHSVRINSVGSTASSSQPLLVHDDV

As usually defined, the IC50 is the concentration needed to halve the response being measured. Take `CO[C@H]1CCCN(C(=O)c2ccc(-n3cc(-c4cc5cc(F)ccc5[nH]c4=O)nn3)cc2)C1` [A195, 6-fluoro-3-{1-[4-((S)-3-methoxy-piperidine-1-carbonyl)-phenyl]-1H-[1,2,3]triazol-4-yl}-1H-quinolin-2-one]: the results for the concentration for half-maximal inhibition (IC50) on PDGFRalpha(V561D) and on c-Kit(V654A) were 93 nM and 68 nM, respectively.

For `CCN(CC)CCNC(=O)c1ccc(-n2cc(-c3cc4cc(F)ccc4[nH]c3=O)nn2)cc1` [A196, N-(2-diethylamino-ethyl)-4-[4-(6-fluoro-2-oxo-1,2-dihydro-quinolin-3-yl)-[1,2,3]triazol-1-yl]-benzamide], the IC50 came out at 110 nM at PDGFRalpha(V561D) and 44 nM at c-Kit(V654A).

In the case of `O=C(c1ccc(-n2cc(-c3cc4cc(F)ccc4[nH]c3=O)nn2)cc1)N1CCC[C@H]1CO` [A197, 6-fluoro-3-{1-[4-((S)-2-hydroxymethyl-pyrrolidine-1-carbonyl)-phenyl]-1H-[1,2,3]triazol-4-yl}-1H-quinolin-2-one], the values for the IC50 on PDGFRalpha(V561D) and on c-Kit(V654A) were 32 nM and 28 nM, respectively.

Take `COC[C@@H]1CCN(C(=O)c2ccc(-n3cc(-c4cc5cc(F)ccc5[nH]c4=O)nn3)cc2)C1` [A199, 6-fluoro-3-{1-[4-((R)-3-methoxymethyl-pyrrolidine-1-carbonyl)-phenyl]-1H-[1,2,3]triazol-4-yl}-1H-quinolin-2-one]: the concentration for half-maximal inhibition (IC50) at PDGFRalpha(V561D) is 22 nM; at c-Kit(V654A) it was 16 nM.

For the compound `COC[C@@H]1CCN(C(=O)c2ccc(-n3cc(-c4cc5cc(F)c(F)cc5[nH]c4=O)nn3)cc2)C1` [A200, 6,7-difluoro-3-{1-[4-((R)-3-methoxymethyl-pyrrolidine-1-carbonyl)-phenyl]-1H-[1,2,3]triazol-4-yl}-1H-quinolin-2-one], the IC50 was found to be 140 nM at PDGFRalpha(V561D) and 180 nM at c-Kit(V654A).

Regarding `COC[C@H]1CCN(C(=O)c2ccc(-n3cc(-c4cc5cc(F)c(F)cc5[nH]c4=O)nn3)cc2)C1` [A201, 6,7-difluoro-3-{1-[4-((S)-3-methoxymethyl-pyrrolidine-1-carbonyl)-phenyl]-1H-[1,2,3]triazol-4-yl}-1H-quinolin-2-one], the concentration for half-maximal inhibition (IC50) at PDGFRalpha(V561D) was 92 nM; on c-Kit(V654A), 97 nM.

`COC[C@H]1CCN(C(=O)c2ccc(-n3cc(-c4cc5cc(F)ccc5[nH]c4=O)nn3)cc2)C1` [A202, 6-fluoro-3-{1-[4-((S)-3-methoxymethyl-pyrrolidine-1-carbonyl)-phenyl]-1H-[1,2,3]triazol-4-yl}-1H-quinolin-2-one]: the IC50 at PDGFRalpha(V561D) stood at 16 nM; at c-Kit(V654A) it was 57 nM.

With `CCN(CC)CCOC1CCN(C(=O)c2ccc(-n3cc(-c4cc5cc(F)ccc5[nH]c4=O)nn3)cc2)C1` (stereo not shown) [A203, 3-(1-{4-[3-(2-diethylamino-ethoxy)-pyrrolidine-1-carbonyl]-phenyl}-1H-[1,2,3]triazol-4-yl)-6-fluoro-1H-quinolin-2-one], the 50% inhibitory concentration (IC50) on PDGFRalpha(V561D) turned out to be 490 nM; at c-Kit(V654A), 36 nM.

`O=C(c1ccc(-n2cc(-c3cc4cc(F)ccc4[nH]c3=O)nn2)cc1)N1CCC2(CCOC2)C1` (stereo not shown) [A204, 6-fluoro-3-{1-[4-(2-oxa-7-aza-spiro[4.4]nonane-7-carbonyl)-phenyl]-1H-[1,2,3]triazol-4-yl}-1H-quinolin-2-one]: the IC50 at PDGFRalpha(V561D) was determined as 110 nM; at c-Kit(V654A), 55 nM.

Turning to `O=C(c1ccc(-n2cc(-c3cc4cc(F)ccc4[nH]c3=O)nn2)cc1)N1CCC2(COC2)C1` [A205, 6-fluoro-3-{1-[4-(2-oxa-6-aza-spiro[3.4]octane-6-carbonyl)-phenyl]-1H-[1,2,3]triazol-4-yl}-1H-quinolin-2-one], the IC50 was found to be 94 nM on PDGFRalpha(V561D) and 36 nM on c-Kit(V654A).

For the compound `O=C(c1ccc(-n2cc(-c3cc4cc(F)ccc4[nH]c3=O)nn2)cc1)N1CCC(CO)C1` (stereo not shown) [A206, 6-fluoro-3-{1-[4-(3-hydroxymethyl-pyrrolidine-1-carbonyl)-phenyl]-1H-[1,2,3]triazol-4-yl}-1H-quinolin-2-one], the IC50 was 48 nM at PDGFRalpha(V561D) and 24 nM on c-Kit(V654A).

`CN(C)C1CCN(C(=O)c2ccc(-n3cc(-c4cc5cc(F)ccc5[nH]c4=O)nn3)cc2)C1` (stereo not shown) [A207, 3-{1-[4-(3-dimethylamino-pyrrolidine-1-carbonyl)-phenyl]-1H-[1,2,3]triazol-4-yl}-6-fluoro-1H-quinolin-2-one]: the IC50 at PDGFRalpha(V561D) worked out at 310 nM; on c-Kit(V654A), 52 nM.

In the case of `O=C(c1ccc(-n2cc(-c3cc4cc(F)ccc4[nH]c3=O)nn2)cc1)N1CCC(N2CCC(O)CC2)C1` (stereo not shown) [A208, 6-fluoro-3-(1-{4-[3-(4-hydroxy-piperidin-1-yl)-pyrrolidine-1-carbonyl]-phenyl}-1H-[1,2,3]triazol-4-yl)-1H-quinolin-2-one], the concentration for half-maximal inhibition (IC50) at PDGFRalpha(V561D) worked out at 180 nM; at c-Kit(V654A), 18 nM.

As for `O=C(c1ccc(-n2cc(-c3cc4cc(F)ccc4[nH]c3=O)nn2)cc1)N1CCC(OCCN2CCOCC2)C1` (stereo not shown) [A209, 6-fluoro-3-(1-{4-[3-(2-morpholin-4-yl-ethoxy)-pyrrolidine-1-carbonyl]-phenyl}-1H-[1,2,3]triazol-4-yl)-1H-quinolin-2-one], the results for the concentration for half-maximal inhibition (IC50) on PDGFRalpha(V561D) and on c-Kit(V654A) were 580 nM and 53 nM, respectively.

`COCCOC[C@@H]1CCN(C(=O)c2ccc(-n3cc(-c4cc5cc(F)ccc5[nH]c4=O)nn3)cc2)C1` [A210, 6-fluoro-3-(1-{4-[(R)-3-(2-methoxy-ethoxymethyl)-pyrrolidine-1-carbonyl]-phenyl}-1H-[1,2,3]triazol-4-yl)-1H-quinolin-2-one]: the concentration for half-maximal inhibition (IC50) turned out to be 300 nM at PDGFRalpha(V561D) and 46 nM on c-Kit(V654A).

As for `COCCN(C)C(=O)c1ccc(-n2cc(-c3cc4cc(F)ccc4[nH]c3=O)nn2)cc1` [A211, 4-[4-(6-fluoro-2-oxo-1,2-dihydro-quinolin-3-yl)-[1,2,3]triazol-1-yl]-N-(2-methoxy-ethyl)-N-methyl-benzamide], the IC50 amounted to 85 nM at PDGFRalpha(V561D) and 190 nM on c-Kit(V654A).

For the compound `COCCN(C)C(=O)c1ccc(-n2cc(-c3cc4cc(F)c(F)cc4[nH]c3=O)nn2)cc1` [A212, 4-[4-(6,7-difluoro-2-oxo-1,2-dihydro-quinolin-3-yl)-[1,2,3]triazol-1-yl]-N-(2-methoxy-ethyl)-N-methyl-benzamide], the IC50 on PDGFRalpha(V561D) came to 160 nM; at c-Kit(V654A), 1300 nM.

Regarding `O=C(c1ccc(-n2cc(-c3cc4cc(F)ccc4[nH]c3=O)nn2)cc1)N1CCOC[C@H]1CO` [A213, 6-fluoro-3-{1-[4-((R)-3-hydroxymethyl-morpholine-4-carbonyl)-phenyl]-1H-[1,2,3]triazol-4-yl}-1H-quinolin-2-one], the IC50 was determined as 37 nM on PDGFRalpha(V561D) and 65 nM on c-Kit(V654A).

With `O=C(c1ccc(-n2cc(-c3cc4cc(F)ccc4[nH]c3=O)nn2)cc1)N1CCCCC1CO` (stereo not shown) [A214, 6-fluoro-3-{1-[4-(2-hydroxymethyl-piperidine-1-carbonyl)-phenyl]-1H-[1,2,3]triazol-4-yl}-1H-quinolin-2-one], the IC50 at PDGFRalpha(V561D) is 79 nM; on c-Kit(V654A), 72 nM.

For the compound `COC[C@@H]1CCCN1C(=O)c1ccc(-n2cc(-c3cc4cc(F)ccc4[nH]c3=O)nn2)cc1` [A215, 6-fluoro-3-{1-[4-((S)-2-methoxymethyl-pyrrolidine-1-carbonyl)-phenyl]-1H-[1,2,3]triazol-4-yl}-1H-quinolin-2-one], the IC50 is 220 nM at PDGFRalpha(V561D) and 64 nM at c-Kit(V654A).

For `O=C(c1ccc(-n2cc(-c3cc4cc(F)ccc4[nH]c3=O)nn2)cc1)N1CCOC[C@@H]1CO` [A216, 6-fluoro-3-{1-[4-((S)-3-hydroxymethyl-morpholine-4-carbonyl)-phenyl]-1H-[1,2,3]triazol-4-yl}-1H-quinolin-2-one], the figures for the half-inhibitory concentration (IC50) on PDGFRalpha(V561D) and on c-Kit(V654A) were 29 nM and 52 nM, respectively.

`COC[C@@H]1CC[C@@H](COC)N1C(=O)c1ccc(-n2cc(-c3cc4cc(F)ccc4[nH]c3=O)nn2)cc1` [A217, 3-{1-[4-((2S,5S)-2,5-bis-methoxymethyl-pyrrolidine-1-carbonyl)-phenyl]-1H-[1,2,3]triazol-4-yl}-6-fluoro-1H-quinolin-2-one]: the values for the concentration for half-maximal inhibition (IC50) on PDGFRalpha(V561D) and at c-Kit(V654A) were 46 nM and 350 nM, respectively.

With `COC[C@H]1CC[C@H](COC)N1C(=O)c1ccc(-n2cc(-c3cc4cc(F)ccc4[nH]c3=O)nn2)cc1` [A218, 3-{1-[4-((2R,5R)-2,5-bis-methoxymethyl-pyrrolidine-1-carbonyl)-phenyl]-1H-[1,2,3]triazol-4-yl}-6-fluoro-1H-quinolin-2-one], the IC50 on PDGFRalpha(V561D) worked out at 59 nM; on c-Kit(V654A), 64 nM.

For the compound `COC[C@@H]1CC[C@@H](COC)N1C(=O)c1ccc(-n2cc(-c3cc4cc(F)c(F)cc4[nH]c3=O)nn2)cc1` [A219, 3-{1-[4-((2S,5S)-2,5-bis-methoxymethyl-pyrrolidine-1-carbonyl)-phenyl]-1H-[1,2,3]triazol-4-yl}-6,7-difluoro-1H-quinolin-2-one], the figures for the IC50 at PDGFRalpha(V561D) and at c-Kit(V654A) were 320 nM and 1600 nM, respectively.

Turning to `COC[C@H]1CC[C@H](COC)N1C(=O)c1ccc(-n2cc(-c3cc4cc(F)c(F)cc4[nH]c3=O)nn2)cc1` [A220, 3-{1-[4-((2R,5R)-2,5-bis-methoxymethyl-pyrrolidine-1-carbonyl)-phenyl]-1H-[1,2,3]triazol-4-yl}-6,7-difluoro-1H-quinolin-2-one], the results for the IC50 on PDGFRalpha(V561D) and on c-Kit(V654A) were 500 nM and 980 nM, respectively.

On to `O=C(c1ccc(-n2cc(-c3cc4cc(F)c(F)cc4[nH]c3=O)nn2)cc1)N1CCC(OCCN2CCOCC2)C1` (stereo not shown) [A221, 6,7-difluoro-3-(1-{4-[3-(2-morpholin-4-yl-ethoxy)-pyrrolidine-1-carbonyl]-phenyl}-1H-[1,2,3]triazol-4-yl)-1H-quinolin-2-one], for which the IC50 on PDGFRalpha(V561D) came out at 380 nM; on c-Kit(V654A), 200 nM.

The record behind these values is patent US11939314B2, “Quinolin-2-one derivatives” (MERCK PATENT GMBH, priority 2016, dated 2024).
